According to ChEMBL document CHEMBL1133435, “Syntheses and evaluation of naphthalenyl- and chromenyl-pyrrolyl-benzoic acids as potent and selective retinoic acid receptor alpha agonists” (Bioorg Med Chem Lett, 2000):

Legend:
[1] = biological target: T1, Retinoic acid receptor alpha (Homo sapiens) (UniProt P10276); conditions: Cercopithecidae; CV-1
T1 sequence (whole entry): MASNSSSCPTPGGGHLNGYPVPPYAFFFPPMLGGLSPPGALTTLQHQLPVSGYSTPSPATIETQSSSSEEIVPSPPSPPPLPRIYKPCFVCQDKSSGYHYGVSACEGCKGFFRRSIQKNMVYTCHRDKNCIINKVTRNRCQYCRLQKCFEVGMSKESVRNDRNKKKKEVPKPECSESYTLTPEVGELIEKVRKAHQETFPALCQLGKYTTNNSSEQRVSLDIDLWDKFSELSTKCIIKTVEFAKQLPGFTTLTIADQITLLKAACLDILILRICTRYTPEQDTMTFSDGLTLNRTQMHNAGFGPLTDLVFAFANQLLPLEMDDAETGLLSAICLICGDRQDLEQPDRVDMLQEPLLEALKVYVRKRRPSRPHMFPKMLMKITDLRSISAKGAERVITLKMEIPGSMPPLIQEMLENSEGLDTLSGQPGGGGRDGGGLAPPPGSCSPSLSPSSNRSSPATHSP
Description: Transcriptional activation in CV-1 cells expressing RAR alpha receptor

[2] = biological target: T2, Retinoic acid receptor beta (Homo sapiens) (UniProt P10826); conditions: Cercopithecidae; CV-1
T2 sequence (whole entry): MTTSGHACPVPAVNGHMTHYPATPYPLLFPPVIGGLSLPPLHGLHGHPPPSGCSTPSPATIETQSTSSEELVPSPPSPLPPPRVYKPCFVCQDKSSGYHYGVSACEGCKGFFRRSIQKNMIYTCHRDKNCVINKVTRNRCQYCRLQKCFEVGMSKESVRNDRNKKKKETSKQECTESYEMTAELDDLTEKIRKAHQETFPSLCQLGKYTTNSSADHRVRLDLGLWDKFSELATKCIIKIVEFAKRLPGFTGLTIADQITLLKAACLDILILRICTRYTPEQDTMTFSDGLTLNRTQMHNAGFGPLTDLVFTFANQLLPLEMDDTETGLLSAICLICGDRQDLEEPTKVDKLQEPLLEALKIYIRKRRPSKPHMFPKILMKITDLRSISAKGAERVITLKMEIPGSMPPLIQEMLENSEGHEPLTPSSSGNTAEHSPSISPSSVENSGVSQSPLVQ
Description: Transcriptional activation in CV-1 cells expressing RAR beta receptor

[3] = biological target: T1, Retinoic acid receptor alpha (Homo sapiens); test: Relative transcriptional activation in CV-1 cells expressing RAR alpha receptor compared to ATRA; type: functional, cell-based; conditions: Cercopithecidae
[4] = biological target: T2, Retinoic acid receptor beta (Homo sapiens); test: Relative transcriptional activation in CV-1 cells expressing RAR beta receptor compared to ATRA; type: functional, cell-based; conditions: Cercopithecidae
[5] = biological target: T3, Retinoic acid receptor gamma (Homo sapiens) (UniProt P13631); test: Relative transcriptional activation in CV-1 cells expressing RAR gamma receptor compared to ATRA; type: functional, cell-based; conditions: Cercopithecidae
T3 sequence (whole entry): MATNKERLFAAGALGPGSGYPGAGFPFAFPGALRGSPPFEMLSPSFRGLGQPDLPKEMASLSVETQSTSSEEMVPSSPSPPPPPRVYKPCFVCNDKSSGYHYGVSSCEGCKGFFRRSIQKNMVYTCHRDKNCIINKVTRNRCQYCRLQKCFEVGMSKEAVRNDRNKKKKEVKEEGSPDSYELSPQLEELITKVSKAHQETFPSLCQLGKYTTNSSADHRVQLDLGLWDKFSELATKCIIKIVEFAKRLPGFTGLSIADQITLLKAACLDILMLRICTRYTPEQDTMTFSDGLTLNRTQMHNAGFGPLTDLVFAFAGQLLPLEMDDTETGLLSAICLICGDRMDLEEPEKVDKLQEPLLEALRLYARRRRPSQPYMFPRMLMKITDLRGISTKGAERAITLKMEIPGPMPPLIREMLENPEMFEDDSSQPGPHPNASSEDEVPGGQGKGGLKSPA

[6] = biological target: T2, Retinoic acid receptor beta (Homo sapiens); test: Binding affinity for Retinoic acid receptor beta relative to ATRA
[7] = biological target: T3, Retinoic acid receptor gamma (Homo sapiens); test: Binding affinity for Retinoic acid receptor gamma relative to ATRA
[8] = biological target: T1, Retinoic acid receptor alpha (Homo sapiens); test: Binding affinity for Retinoic acid receptor alpha relative to ATRA
[9] = biological target: T2, Retinoic acid receptor beta (Homo sapiens); test: Relative transcriptional activation in CV-1 cells expressing RAR beta receptor compared to ATRA; Not detectable; type: functional, cell-based; conditions: Cercopithecidae
[10] = biological target: T3, Retinoic acid receptor gamma (Homo sapiens); test: Relative transcriptional activation in CV-1 cells expressing RAR gamma receptor compared to ATRA; Not detectable; type: functional, cell-based; conditions: Cercopithecidae
[11] = biological target: T1, Retinoic acid receptor alpha (Homo sapiens); test: Relative transcriptional activation in CV-1 cells expressing RAR alpha receptor compared to ATRA; Not detectable; type: functional, cell-based; conditions: Cercopithecidae
[12] = biological target: T1, Retinoic acid receptor alpha (Homo sapiens); test: Binding affinity for Retinoic acid receptor alpha relative to ATRA; Not detectable
[13] = system: HL-60; test: Induction of HL-60 cell differentiation; type: functional; conditions: Homo sapiens

| Structure (SMILES) | EC30 [1] | EC30 [2] | Relative EC30 [3] | Relative EC30 [4] | Relative EC30 [5] | Relative IC50 [6] | Relative IC50 [7] | Relative IC50 [8] | Relative EC30 [9] | Relative EC30 [10] | Relative EC30 [11] | Relative IC50 [12] | EC30 [13] |
| --- | --- | --- | --- | --- | --- | --- | --- | --- | --- | --- | --- | --- | --- |
| CC1=C(/C=C/C(C)=C/C=C/C(C)=C/C(=O)O)C(C)(C)CCC1 | 1.1 nM | 0.69 nM | – | – | – | – | – | – | – | – | – | – | – |
| Cc1ccc(C)c2c1C=C(c1ccc(-c3ccc(C(=O)O)cc3)[nH]1)CO2 | – | – | 1.8 nM | 240 nM | 3600 nM | > 1000 nM | > 1000 nM | 9.7 nM | – | – | – | – | – |
| Cc1ccc(C)c2cc(-c3ccc(-c4ccc(C(=O)O)cc4)[nH]3)ccc12 | – | – | 2.8 nM | 250 nM | 2200 nM | > 1000 nM | > 1000 nM | 24 nM | – | – | – | – | – |
| Cc1cccc2ccc(-c3ccc(-c4ccc(C(=O)O)cc4)[nH]3)cc12 | – | – | 49 nM | – | – | > 1000 nM | > 1000 nM | 15 nM | > 10000 nM | > 10000 nM | – | – | – |
| Cc1c(C)c(C)c2cc(-c3ccc(-c4ccc(C(=O)O)cc4)[nH]3)ccc2c1C | – | – | – | – | – | > 1000 nM | > 1000 nM | – | > 10000 nM | > 10000 nM | > 10000 nM | > 1000 nM | – |
| O=C(O)c1ccc(-c2ccc(-c3ccc4cccc(-c5ccccc5)c4c3)[nH]2)cc1 | – | – | > 10000 nM | 880 nM | – | > 1000 nM | > 1000 nM | 1.4 nM | – | > 10000 nM | – | – | – |
| Cc1cccc2c1C=C(c1ccc(-c3ccc(C(=O)O)cc3)[nH]1)CO2 | – | – | 4.5 nM | 1030 nM | 5250 nM | > 1000 nM | > 1000 nM | 50 nM | – | – | – | – | – |
| CC(/C=C/C=C(\C)c1ccc2c(C)ccc(C)c2c1)=C\C(=O)O | – | – | 20 nM | 11 nM | 660 nM | 49 nM | 227 nM | 2.7 nM | – | – | – | – | – |
| CC(C)c1cccc2ccc(-c3ccc(-c4ccc(C(=O)O)cc4)[nH]3)cc12 | – | – | 1.1 nM | 78 nM | 88 nM | > 1000 nM | 910 nM | < 1 nM | – | – | – | – | 100 nM |
| CC(/C=C/C=C(\C)c1ccc2c(c1)C(C)(C)CCC2(C)C)=C\C(=O)O | – | – | 0.27 nM | 0.2 nM | 0.24 nM | 0.34 nM | 0.67 nM | 0.49 nM | – | – | – | – | – |
| Cc1cc(C)c2ccc(-c3ccc(-c4ccc(C(=O)O)cc4)[nH]3)cc2c1 | – | – | 90 nM | – | – | > 1000 nM | > 1000 nM | – | > 10000 nM | > 10000 nM | – | > 1000 nM | – |
